Source: US11485736B2 (KSQ Therapeutics, Inc., priority 2018, dated 2022)
Read-outs that look alike come from different tables or passages of the source.

Columns and labels:
[1] = Liver microsomal stability, rat liver microsomes; assay type: in vitro ADME; conditions: 1 μM compound, NADPH, read-out: t1/2 (min) in RLM
Description: (§1) Certain Compounds of the Disclosure were assessed for ADME metabolic stability in human liver microsomes (HLM) and rat liver microsomes (RLM).
(§2) Samples were prepared by adding 222.5 μL of a master solution (100 mM phosphate buffer and 1 mg/mL liver microsomes (HLM or RLM)) and 25 μL of a 10 mM NADPH solution to incubation plates, which were then warmed for 10 min. Each compound was separately dissolved in DMSO to prepare 10 mM stock solutions, which were then diluted to 100 μM with acetonitrile. A reaction was started by adding 2.5 μL of the 100 μM solution of each compound to separate incubation plates such that the final concentration of for each compound in each plate was 1 μM.
(§3) 25 μL aliquots of each sample were taken at 0.5, 5, 10, 15, 20 and 30 minutes, and the reaction was stopped by adding 5 volumes of cold acetonitrile with IS (100 nM alprazolam, 200 nM caffeine and 100 nM tolbutamide). The samples were then centrifuged at 3,220 G for 30 minutes, and 100 μL of the supernatant fluid was mixed with 100 μL of ultra-pure H2O.
(§4) The samples were then analyzed by LC-MS/MS. Peak areas were determined from extracted ion chromatograms. Slope values (k) were determined by linear regression of the natural logarithm of the remaining percentage of the compound vs. incubation time curve. […] The in vitro half-life (min) was converted into the in vitro intrinsic clearance (in vitro CLint, in μL/min/mg protein) using the following equation: […]

[2] = ADME solubility determination at pH 2.0 and pH 7.4; assay type: physicochemical; conditions: aqueous buffer, thermodynamic from solid, LC-MS/MS
Description: Certain Compounds of the Disclosure were assessed for ADME solubility at pH 2.0 and pH 7.4.
Stock solutions were prepared by adding each compound to DMSO at a concentration of 10 mM. Samples were prepared by adding 50 μL of each stock solution to separate vials. The vials were loaded onto a 96-well rack and dried. 500 μL of Phosphate Buffered Saline (PBS) pH 7.4 or PBS pH 2.0 were added into each vial. The vials were then shaken at 25° C. and 1,100 rpm for 24 hours.
After 24 hours, the vials were centrifuged at 3220 G and 25° C. for 30 minutes. The supernatant fluid was analyzed by LC-MS/MS against a standard of known concentration. The solubility of each sample was then calculated using the equation below:
[formula] where DF is the dilution factor.

[3] = Liver microsomal stability, human liver microsomes; assay type: in vitro ADME; conditions: 1 μM compound, NADPH, read-out: t1/2 (min) in HLM
Description: as §1, §2, §3, §4

[4] = PBS pH 2.0, shaken at 25° C. for 24 hours, read-out: Solubility at pH 2.0
[5] = PBS pH 7.4, shaken at 25° C. for 24 hours, read-out: Solubility at pH 7.4

| SMILES | half-life at 1 μM [1] [min] | solubility at 24 h [2, 4] [µM] | solubility at 24 h [2, 5] [µM] | half-life at 1 μM [3] [min] |
| --- | --- | --- | --- | --- |
| COc1ncnc(C2(C)CC2)c1-c1ncc2cnn(Cc3ccc(-c4nc(C(F)(F)F)cn4C)cc3)c2n1 [Example 104] | < 25 | > 10 | > 10 | < 25 |
| CCn1cc(C(F)(F)F)nc1-c1ccc(Cn2ncc3cnc(-c4c(OC)ncnc4C4CC4)nc32)cc1 [Example 51] | > 25 | > 10 | < 10 | > 25 |
| COc1ncnc(C2CC2)c1-c1ncc2cnn([C@@H]3CCc4cc(-c5nc(C(F)(F)F)cn5C(C)C)ccc43)c2n1 [Example 174] | > 25 | < 10 | < 10 | > 25 |
| COc1ncnc(C2CC2)c1-c1ncc2ncn(Cc3ccc(-c4nc(C(F)(F)F)cn4C(C)C)cc3)c2n1 [Example 204] | < 25 | > 10 | > 10 | > 25 |
| COc1ncnc(C(C)(C)F)c1-c1ncc2cnn(Cc3ccc(-c4nc(C(F)(F)F)cn4C)cc3)c2n1 [Example 110] | > 25 | > 10 | > 10 | < 25 |
| COc1ncnc(C2CC2)c1-c1ncc2cnn([C@@H](C)c3ccc(-c4nc(C(F)(F)F)cn4CCF)cc3)c2n1 [Example 169] | > 25 | > 10 | < 10 | > 25 |
| CCOc1nn(Cc2ccc(-c3nc(C(F)(F)F)cn3CC)cc2)c2nc(-c3c(OC)ncnc3C3CC3)ncc12 [Example 182] | > 25 | < 10 | < 10 | > 25 |
| COc1ncnc(C2CC2)c1-c1ncc2cnn(Cc3ccc(-c4nc(C(F)(F)F)cn4C4CCOC4)cc3)c2n1 (stereo not drawn) [Example 146] | < 25 | > 10 | > 10 | < 25 |
| COc1ncnc(C2CC2)c1-c1ncc2cnn(Cc3ccc(-c4nc(C(F)(F)F)oc4C)cc3)c2n1 [Example 127] | > 25 | < 10 | < 10 | > 25 |
| COc1cc(Cn2ncc3cnc(-c4c(OC)ncnc4C4CC4)nc32)ccc1-c1nc(C(F)(F)F)cn1CCF [Example 129] | > 25 | > 10 | < 10 | > 25 |
| COc1ncnc(C2(C)CC2)c1-c1ncc2cnn(Cc3ccc(-c4nc(C(F)(F)F)cn4C(C)C)cc3)c2n1 [Example 107] | > 25 | > 10 | > 10 | > 25 |
| CCn1cc(C(F)(F)F)nc1-c1ccc(Cn2ncc3cnc(-c4c(OCCF)ncnc4C4CC4)nc32)cc1 [Example 54] | < 25 | < 10 | < 10 | < 25 |
| [2H]C([2H])([2H])C([2H])([2H])n1cc(C(F)(F)F)nc1-c1ccc(Cn2ncc3cnc(-c4c(OC)ncnc4C4CC4)nc32)cc1 [Example 139] | > 25 | > 10 | > 10 | > 25 |
| COc1ncnc(C2CC2)c1-c1ncc2cnn(Cc3ccc(-c4nc(C(F)(F)F)cn4C(C)CF)cc3)c2n1 (stereo not drawn) [Example 151, 6-(4-cyclopropyl-6-methoxypyrimidin-5-yl)-1-(4-(1-(1-fluoropropan-2-yl)-4-(trifluoromethyl)-1H-imidazol-2-yl)benzyl)-1H-pyrazolo[3,4-d]pyrimidine] | > 25 | > 10 | > 10 | > 25 |
| COCCOc1ncnc(C2CC2)c1-c1ncc2cnn(Cc3ccc(-c4nc(C(F)(F)F)cn4C)cc3)c2n1 [Example 42] | < 25 | > 10 | > 10 | < 25 |
| CCn1cc(C(F)(F)F)nc1-c1ccc(Cn2ncc3cnc(-c4c(OC(C)(C)C)ncnc4C4CC4)nc32)cc1 [Example 59] | < 25 | < 10 | < 10 | < 25 |

| SMILES | half-life at 1 μM [1] [min] | solubility at 24 h [2, 4] [µM] | solubility at 24 h [2, 5] [µM] | half-life at 1 μM [3] [min] |
| --- | --- | --- | --- | --- |
| CCn1cc(C(F)(F)F)nc1-c1ccc(Cn2ncc3cnc(-c4c(OC)ncnc4OC)nc32)cc1 [Example 87] | > 25 | > 10 | > 10 | > 25 |
| COc1ncnc(C2CC2)c1-c1ncc2cnn(Cc3ccc(-c4nc(C(F)(F)F)sc4C)cc3)c2n1 [Example 125] | > 25 | < 10 | < 10 | > 25 |
| CC(C)Oc1ncnc(C2CC2)c1-c1ncc2cnn(Cc3ccc(-c4nc(C(F)(F)F)cn4C)cc3)c2n1 [Example 40] | < 25 | > 10 | < 10 | < 25 |
| COc1ncnc(C2CC2)c1-c1ncc2cnn(Cc3ccc(-n4nc(C(F)(F)F)cc4SC)cc3)c2n1 [Example 38] | < 25 | < 10 | < 10 | < 25 |
| COc1ncnc(C2CC2)c1-c1ncc2nc(C)n(Cc3ccc(-c4nc(C(F)(F)F)cn4C)cc3)c2n1 [Example 206] | > 25 | > 10 | < 10 | < 25 |
| CCn1cc(C(F)(F)F)nc1-c1ccc([C@H](C)n2nc(OC)c3cnc(-c4c(OC)ncnc4C4CC4)nc32)cc1 [Example 180] | > 25 | < 10 | < 10 | > 25 |
| CCn1cc(C(F)(F)F)nc1-c1ccc(Cn2nc(OC)c3cnc(-c4c(OC)ncnc4C4CC4)nc32)cc1F [Example 175, 6-(4-cyclopropyl-6-methoxypyrimidin-5-yl)-1-(4-(1-ethyl-4-(trifluoromethyl)-1H-imidazol-2-yl)-3-fluorobenzyl)-3-methoxy-1H-pyrazolo[3,4-d]pyrimidine] | > 25 | < 10 | < 10 | > 25 |
| COc1ncnc(C2CC2)c1-c1ncc2cnn(Cc3ccc(-n4nc(C(F)(F)F)cc4OC)nc3)c2n1 [Example 79] | > 25 | < 10 | < 10 | > 25 |
| COc1ncnc(C2(C)CC2)c1-c1ncc2cnn(Cc3ccc(-n4nc(C(F)(F)F)cc4C)cc3)c2n1 [Example 105] | > 25 | > 10 | < 10 | > 25 |
| CCc1nc2cnc(-c3c(OC)ncnc3C3CC3)nc2n1Cc1ccc(-n2nc(C(F)(F)F)cc2C)cc1 [Example 209, 2-(4-cyclopropyl-6-methoxypyrimidin-5-yl)-8-ethyl-9-(4-(5-methyl-3-(trifluoromethyl)-1H-pyrazol-1-yl)benzyl)-9H-purine] | > 25 | > 10 | > 10 | < 25 |
| CCn1cc(C(F)(F)F)nc1-c1ccc(Cn2ncc3cnc(-c4c(OC)ncnc4C4CC4)nc32)cc1OC [Example 128] | < 25 | > 10 | > 10 | > 25 |
| CCn1cc(C(F)(F)F)nc1-c1ccc([C@H](C)n2ncc3cnc(-c4c(OC)ncnc4OC)nc32)cc1 [Example 88] | < 25 | > 10 | > 10 | > 25 |
| COc1ncnc(C2CC2)c1-c1ncc2cnn(Cc3ccc(-n4nc(C#N)cc4OC)cc3)c2n1 [Example 70] | < 25 | < 10 | < 10 | > 25 |
| COc1ncnc(C2CC2)c1-c1ncc2cnn(Cc3ccc(-n4nc(C(F)(F)F)cc4C#N)cc3)c2n1 [Example 71] | > 25 | < 10 | < 10 | > 25 |
| COc1ncnc(OC)c1-c1ncc2cnn(Cc3ccc(-c4nc(C(F)(F)F)cn4C)cc3)c2n1 [Example 86] | > 25 | > 10 | > 10 | > 25 |
| COc1ncnc(C2CC2)c1-c1ncc2cnn(Cc3ccc(-c4csc(C(F)(F)F)n4)cc3)c2n1 [Example 126] |  | < 10 | < 10 |  |
